{
  "source": "ChEMBL document CHEMBL3621134",
  "about": "“Cyclic Peptides Incorporating Phosphotyrosine Mimetics as Potent and Specific Inhibitors of the Grb7 Breast Cancer Target” (J Med Chem, 2015)",
  "biological_target": "T1, Growth factor receptor-bound protein 10 (Homo sapiens, UniProt Q13322)",
  "T1 sequence (Q13322 whole entry)": "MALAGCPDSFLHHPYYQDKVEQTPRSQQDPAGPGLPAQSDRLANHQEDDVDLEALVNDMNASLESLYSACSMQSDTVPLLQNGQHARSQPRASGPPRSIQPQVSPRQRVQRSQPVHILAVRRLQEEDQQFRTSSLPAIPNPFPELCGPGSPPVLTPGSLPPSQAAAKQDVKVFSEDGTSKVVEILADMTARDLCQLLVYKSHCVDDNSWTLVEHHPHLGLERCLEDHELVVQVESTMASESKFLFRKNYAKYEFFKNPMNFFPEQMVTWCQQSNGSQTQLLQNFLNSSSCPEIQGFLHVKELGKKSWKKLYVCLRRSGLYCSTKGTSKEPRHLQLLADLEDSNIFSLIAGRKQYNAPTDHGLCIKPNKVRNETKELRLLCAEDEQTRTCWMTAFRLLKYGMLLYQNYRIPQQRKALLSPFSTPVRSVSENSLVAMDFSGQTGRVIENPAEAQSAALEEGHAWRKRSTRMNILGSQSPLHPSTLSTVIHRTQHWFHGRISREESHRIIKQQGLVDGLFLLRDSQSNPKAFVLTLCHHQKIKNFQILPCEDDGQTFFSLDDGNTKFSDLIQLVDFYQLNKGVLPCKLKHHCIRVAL",
  "assay": "Binding affinity to GST-tagged Grb10-SH2 domain (471 to 594 amino acid residues) (unknown origin) expressed in Escherichia coli BL21 (DE3) using 20 mM Tris/1 mM NaPO4 buffer by SPR analysis; call rule not given here",
  "data": [
    {"compound": "C[C@@H](O)[C@@H]1NC(=O)[C@H](CC(N)=O)NC(=O)[C@H](CC(=O)O)NC(=O)[C@H](Cc2ccc(O)cc2)NC(=O)CNC(=O)[C@H](CCC(=O)O)NC(=O)[C@H](Cc2ccccc2)NC(=O)[C@H](Cc2c[nH]c3ccccc23)NC(=O)CSC[C@@H](C(N)=O)NC(=O)[C@@H]2CCCN2C(=O)[C@H](Cc2ccccc2)NC1=O", "values": [
      {"measurement": "Kd", "result": "Not Active"}
    ]}
  ]
}
